For orientation: MIC means the lowest concentration that inhibits growth of the organism.

Data set [1] deals with Mycobacterium tuberculosis. Put plainly: Antitubercular activity against multidrug-resistant Mycobacterium tuberculosis by NCCLS agar dilution method. The data set is classed as functional. A general note: Agar dilution tests growth on a series of plates holding different concentrations.
For data set [2], the system named is Mycobacterium tuberculosis. The experiment in a line: Ratio of isoniazid MIC to compound MIC for multidrug-resistant Mycobacterium tuberculosis. The data set is classed as functional.
Data set [3] concerns Mycobacterium tuberculosis. The experiment in a line: Ratio of ethambutol MIC to compound MIC for multidrug-resistant Mycobacterium tuberculosis. The data set is classed as functional.
Data set [4] concerns Mycobacterium tuberculosis. Put plainly: Ratio of ofloxacin MIC to compound MIC for multidrug-resistant Mycobacterium tuberculosis. The data set is classed as functional.
In data set [5] the test system is Mycobacterium tuberculosis. Put plainly: Ratio of rifampicin MIC to compound MIC for multidrug-resistant Mycobacterium tuberculosis. The class given is functional.
Data set [6] is described as follows: Selectivity index, ratio of CC50 for african green monkey Vero cells to MIC for multidrug-resistant Mycobacterium tuberculosis. The data set is classed as toxicity, cell-based. To be noted: read-out: Selectivity Index.

≈ marks a conversion by molar mass, not a printed value.

`C/C(=N/NC(=S)N(Cc1ccccc1)Cc1ccccc1)c1ccccc1O`: in data set [1], the MIC worked out at 8.03 µM (≈ 3.13 µg/mL).

In turn, `C/C(=N/NC(=S)N(Cc1ccccc1)Cc1ccccc1)c1ccc(F)cc1` registered an MIC in data set [1] of 3.98 µM (≈ 1.56 µg/mL). For `C=CCN(CC=C)C(=S)N/N=C(/C)c1ccc(O)cc1`, the MIC in data set [1] was found to be 10.8 µM (≈ 3.13 µg/mL).

Compound `S=C(N/N=C\c1ccccc1)N(Cc1ccccc1)Cc1ccccc1` displayed a minimum inhibitory concentration (MIC) in data set [1] of 8.71 µM (≈ 3.13 µg/mL). `C=CCN(CC=C)C(=S)N/N=C(/C)c1ccc(F)cc1` came in with an MIC in data set [1] of 5.35 µM (≈ 1.56 µg/mL). `S=C(NN=C(c1ccccc1)c1ccccc1)N(Cc1ccccc1)Cc1ccccc1` displayed an MIC in data set [1] of 1.79 µM (≈ 0.78 µg/mL). Regarding `CO[C@H]1/C=C/O[C@@]2(C)Oc3c(C)c(O)c4c(O)c(c(/C=N/N5CCN(C)CC5)c(O)c4c3C2=O)NC(=O)/C(C)=C\C=C\[C@H](C)[C@H](O)[C@@H](C)[C@@H](O)[C@@H](C)[C@H](OC(C)=O)[C@@H]1C` [RIFAMPIN], it took 3.79 µM (≈ 3.12 µg/mL) to inhibit growth in data set [1] (MIC). Still for that read-out and setting: next, `C=CCN(CC=C)C(=S)N/N=C(/C)c1ccccc1`: 11.4 µM (≈ 3.13 µg/mL); `C=CCN(CC=C)C(=S)N/N=C(/C)c1ccc([N+](=O)[O-])cc1`: 9.83 µM (≈ 3.13 µg/mL).

The compound `C=CCN(CC=C)C(=S)N/N=C\c1ccc([N+](=O)[O-])o1` yielded an MIC in data set [1] of 0.67 µM (≈ 0.197 µg/mL). `C/C(=N/NC(=S)N(Cc1ccccc1)Cc1ccccc1)c1ccc([N+](=O)[O-])cc1`: the minimum inhibitory concentration (MIC) in data set [1] was found to be 1.86 µM (≈ 0.778 µg/mL).

For `O=[N+]([O-])c1ccc(/C=N\NC(=S)N(Cc2ccccc2)Cc2ccccc2)cc1`, the minimal inhibitory concentration (MIC) in data set [1] turned out to be 0.98 µM (≈ 0.396 µg/mL). `S=C(N/N=C\c1ccc(Cl)cc1)N(Cc1ccccc1)Cc1ccccc1` gave an MIC in data set [1] of 1.98 µM (≈ 0.78 µg/mL). `C=CCN(CC=C)C(=S)N/N=C\c1ccccc1C`: the MIC in data set [1] amounted to 5.7 µM (≈ 1.56 µg/mL). `C=CCN(CC=C)C(=S)NN=C(c1ccccc1)c1ccccc1` had an MIC in data set [1] of 2.32 µM (≈ 0.778 µg/mL). Turning to `NNC(=O)c1ccncc1` [ISONIAZID], the MIC in data set [1] is 45.6 µM (≈ 6.25 µg/mL). Consider `C=CCN(CC=C)C(=S)N/N=C(/C)c1ccccc1O`, for which, in data set [1], 10.8 µM (≈ 3.13 µg/mL) was the least that counted as inhibitory (MIC). As for `C/C(=N/NC(=S)N(Cc1ccccc1)Cc1ccccc1)c1ccc(N)cc1`, in data set [1], inhibition of growth (MIC) required 8.04 µM (≈ 3.12 µg/mL).

In turn, `C/C(=N/NC(=S)N(Cc1ccccc1)Cc1ccccc1)c1ccccc1` returned an MIC in data set [1] of 4.17 µM (≈ 1.56 µg/mL). Compound `O=[N+]([O-])c1ccc(/C=N\NC(=S)N(Cc2ccccc2)Cc2ccccc2)o1` showed an MIC in data set [1] of 0.12 µM (≈ 0.0473 µg/mL). The Ratio came out at 379 in data set [2], 314 in data set [3], 288 in data set [4] and 31 in data set [5]. Moreover, the selectivity ratio in data set [6] was found to be 1320.

The compound `C=CCN(CC=C)C(=S)N/N=C\c1ccc([N+](=O)[O-])cc1` displayed an MIC in data set [1] of 1.31 µM (≈ 0.399 µg/mL). Compound `CC[C@@H](CO)NCCN[C@@H](CC)CO` [ETHAMBUTOL] showed an MIC in data set [1] of 37.7 µM (≈ 7.7 µg/mL). In data set [1], `O=[N+]([O-])c1ccccc1/C=N\NC(=S)N(Cc1ccccc1)Cc1ccccc1` registered an MIC of 0.98 µM (≈ 0.396 µg/mL). In the case of `Oc1ccccc1/C=N\NC(=S)N(Cc1ccccc1)Cc1ccccc1`, 4.16 µM (≈ 1.56 µg/mL) was the least that counted as inhibitory in data set [1] (MIC). As for `C/C(=N/NC(=S)N(Cc1ccccc1)Cc1ccccc1)c1ccc(O)cc1`, it took 8.03 µM (≈ 3.13 µg/mL) to inhibit growth in data set [1] (MIC). Compound `C=CCN(CC=C)C(=S)N/N=C\c1ccc(Cl)cc1` came in with an MIC in data set [1] of 2.65 µM (≈ 0.779 µg/mL). In turn, `Cc1ccccc1/C=N\NC(=S)N(Cc1ccccc1)Cc1ccccc1` showed an MIC in data set [1] of 4.71 µM (≈ 1.76 µg/mL). The compound `C=CCN(CC=C)C(=S)N/N=C\c1ccccc1[N+](=O)[O-]` registered an MIC in data set [1] of 2.56 µM (≈ 0.779 µg/mL).

(Values after ChEMBL document CHEMBL3044985, “Novel antitubercular diallyl/dibenzylthiosemicarbazones endowed with high activity toward multi-drug-resistant tuberculosis” (Med Chem Res, 2012).)
